Data: ChEMBL document CHEMBL4765295, “Synthesis, pharmacological profile and 2D-QSAR studies of curcumin-amino acid conjugates as potential drug candidates” (Eur J Med Chem, 2020)
≈ marks a conversion by molar mass, not a printed value. Where “and” joins values, the source holds several entries; their conditions need not be identical. Identical values can stand only once.

test system: Rattus norvegicus; experiment: Anti-inflammatory activity in Wistar rat assessed as inhibition of carrageenan-induced paw edema at 10 mg/kg, ip pretreated for 1 hr followed by carrageenan challenge and measured after 4 hr relative to indomethacin; assay type: functional; details: time 5 hrs

Row | Structure (SMILES) | inhibition in vivo at 10 mg/kg [%]
1 | COc1cc(/C=C/C(=O)CC(=O)/C=C/c2ccc(O)c(OC)c2)ccc1O [CURCUMIN] | 98

test system: Mus musculus; experiment: Analgesic activity in albino mouse assessed as protection at 10 mg/kg, ip measured after 120 mins by hot plate test relative to indomethacin; assay type: functional; details: 2 h

Row | Structure (SMILES) | Activity [%]
2 | COc1cc(/C=C/C(=O)CC(=O)/C=C/c2ccc(O)c(OC)c2)ccc1O [CURCUMIN] | 76.4

test system: Rattus norvegicus; experiment: Antiinflammatory activity in Wistar rat model of carrageenan-induced paw edema assessed as reduction in thickness of paw edema at 10 mg/kg, ip pretreated for 1 hr followed by carrageenan challenge and measured after 24 hrs (reference value: 0.83 +/-0.08 mm); assay type: functional; details: time 25 hrs

Row | Structure (SMILES) | Activity [mm]
3 | COc1cc(/C=C/C(=O)CC(=O)/C=C/c2ccc(O)c(OC)c2)ccc1O [CURCUMIN] | 0.53

test system: Splenocyte; experiment: Immunomodulatory activity in Swiss albino mouse splenocytes assessed as cell viability at 10 uM by measuring inhibition of stimulation index incubated for 72 hrs in presence of mitogenic stimulus phytohaemagglutinin by MTT assay relative to indomethacin; assay type: functional; details: read-out: Activity

Row | Structure (SMILES) | viability at 10 µM [%]
4 | COc1cc(/C=C/C(=O)CC(=O)/C=C/c2ccc(O)c(OC)c2)ccc1O [CURCUMIN] | 79.5

test system: Mus musculus; experiment: Analgesic activity in albino mouse assessed as forepaw licking/jumping latency time at 10 mg/kg, ip measured after 30 mins by hot plate test (reference value: 5.02 +/- 0.09 sec); assay type: functional; details: 0.5 h

Row | Structure (SMILES) | Time [s]
5 | COc1cc(/C=C/C(=O)CC(=O)/C=C/c2ccc(O)c(OC)c2)ccc1O [CURCUMIN] | 5.04

test system: Salmonella typhimurium; experiment: Antibacterial activity against Salmonella typhimurium ATCC 19430 incubated for 18 hrs by agar dilution assay; assay type: functional, Salmonella enterica subsp. enterica serovar Typhimurium; details: Salmonella enterica

Row | MIC | Structure (SMILES)
6 | 0.125 µg/mL and 0.339 µM | COc1cc(/C=C/C(=O)CC(=O)/C=C/c2ccc(O)c(OC)c2)ccc1O [CURCUMIN]

test system: Rattus norvegicus; experiment: Antiinflammatory activity in Wistar rat model of carrageenan-induced paw edema assessed as reduction in thickness of paw edema at 10 mg/kg, ip pretreated for 1 hr followed by carrageenan challenge and measured after 2 hrs (reference value: 2.06 +/-0.09 mm); assay type: functional; details: time 3 hrs

Row | Structure (SMILES) | Activity [mm]
7 | COc1cc(/C=C/C(=O)CC(=O)/C=C/c2ccc(O)c(OC)c2)ccc1O [CURCUMIN] | 0.82

test system: Streptococcus pyogenes; experiment: Antibacterial activity against Streptococcus pyogenes ATCC 19615 incubated for 18 hrs by agar dilution method; assay type: functional; details: not given

Row | MIC | Structure (SMILES)
8 | 0.125 µg/mL and 0.339 µM | COc1cc(/C=C/C(=O)CC(=O)/C=C/c2ccc(O)c(OC)c2)ccc1O [CURCUMIN]

test system: Rattus norvegicus; experiment: Anti-inflammatory activity in Wistar rat assessed as inhibition of carrageenan-induced paw edema at 10 mg/kg, ip pretreated for 1 hr followed by carrageenan challenge and measured after 3 hr relative to control (reference value: 0.00 +/-0.1 %); assay type: functional; details: time 4 hrs

Row | Structure (SMILES) | inhibition in vivo at 10 mg/kg [%]
9 | COc1cc(/C=C/C(=O)CC(=O)/C=C/c2ccc(O)c(OC)c2)ccc1O [CURCUMIN] | 75

test system: Splenocyte; experiment: Immunomodulatory activity in Swiss albino mouse splenocytes assessed as cell viability at 10 uM by measuring stimulation index incubated for 72 hrs in presence of mitogenic stimulus phytohaemagglutinin by MTT assay (reference value: 1.00 +/- 0.24); assay type: functional; details: not given

Row | Structure (SMILES) | Activity_index
10 | COc1cc(/C=C/C(=O)CC(=O)/C=C/c2ccc(O)c(OC)c2)ccc1O [CURCUMIN] | 1.52

test system: Rattus norvegicus; experiment: Anti-inflammatory activity in Wistar rat assessed as inhibition of carrageenan-induced paw edema at 10 mg/kg, ip pretreated for 1 hr followed by carrageenan challenge and measured after 24 hr relative to control (reference value: 0.00 +/-0.3 %); assay type: functional; details: time 25 hrs

Row | Structure (SMILES) | inhibition in vivo at 10 mg/kg [%]
11 | COc1cc(/C=C/C(=O)CC(=O)/C=C/c2ccc(O)c(OC)c2)ccc1O [CURCUMIN] | 36

test system: Mus musculus; experiment: Analgesic activity in albino mouse assessed as protection at 10 mg/kg, ip measured after 30 mins by hot plate test (reference value: 0 %); assay type: functional; details: 0.5 h

Row | Structure (SMILES) | Activity [%]
12 | COc1cc(/C=C/C(=O)CC(=O)/C=C/c2ccc(O)c(OC)c2)ccc1O [CURCUMIN] | 0.4

test system: Staphylococcus aureus; experiment: Antibacterial activity against Staphylococcus aureus ATCC 25923 incubated for 18 hrs by agar dilution method; assay type: functional; details: not given

Row | MIC [µM] | Structure (SMILES)
13 | 0.339 (≈ 0.125 µg/mL) | COc1cc(/C=C/C(=O)CC(=O)/C=C/c2ccc(O)c(OC)c2)ccc1O [CURCUMIN]

test system: Rattus norvegicus; experiment: Anti-inflammatory activity in Wistar rat assessed as inhibition of carrageenan-induced paw edema at 10 mg/kg, ip pretreated for 1 hr followed by carrageenan challenge and measured after 1 hr relative to control (reference value: 0.00 +/-0.02 %); assay type: functional; details: time 2 hrs

Row | Structure (SMILES) | inhibition in vivo at 10 mg/kg [%]
14 | COc1cc(/C=C/C(=O)CC(=O)/C=C/c2ccc(O)c(OC)c2)ccc1O [CURCUMIN] | 12

test system: Rattus norvegicus; experiment: Antiinflammatory activity in Wistar rat model of carrageenan-induced paw edema assessed as reduction in thickness of paw edema at 10 mg/kg, ip pretreated for 1 hr followed by carrageenan challenge and measured after 4 hrs (reference value: 1.40 +/-0.10 mm); assay type: functional; details: time 5 hrs

Row | Structure (SMILES) | Activity [mm]
15 | COc1cc(/C=C/C(=O)CC(=O)/C=C/c2ccc(O)c(OC)c2)ccc1O [CURCUMIN] | 0.21

test system: Mus musculus; experiment: Analgesic activity in albino mouse assessed as forepaw licking/jumping latency time at 10 mg/kg, ip measured after 90 mins by hot plate test (reference value: 2.72 +/- 0.01 sec); assay type: functional; details: 1.5 h

Row | Structure (SMILES) | Time [s]
16 | COc1cc(/C=C/C(=O)CC(=O)/C=C/c2ccc(O)c(OC)c2)ccc1O [CURCUMIN] | 4.54

test system: not listed separately; experiment: Ulcerogenic activity in fasted albino mouse assessed as ulcer index in gastric mucosa at 10 mg/kg, po for 3 days (reference value: 0); assay type: toxicity, organism-based; details: in vivo, 72 h, time 3 day

Row | Structure (SMILES) | UI
17 | COc1cc(/C=C/C(=O)CC(=O)/C=C/c2ccc(O)c(OC)c2)ccc1O [CURCUMIN] | 3.99

test system: Mus musculus; experiment: Analgesic activity in albino mouse assessed as protection at 10 mg/kg, ip measured after 90 mins by hot plate test (reference value: 0 %); assay type: functional; details: 1.5 h

Row | Structure (SMILES) | Activity [%]
18 | COc1cc(/C=C/C(=O)CC(=O)/C=C/c2ccc(O)c(OC)c2)ccc1O [CURCUMIN] | 66.9
